Test results as given in patent US20200115667A1, “VASCULARIZED MICROFLUIDIC PLATFORMS” (BOARD OF REGENTS, THE UNIVERSITY OF TEXAS SYSTEM, priority 2017, published 2020).
Like-named read-outs stand apart in the source and are kept apart here.

Key:
[1] = system: TIME monoculture endothelium; assay: Porosity of vasculature (vessel confluence, confocal); format: cell-based, human; conditions: 20 ng/ml perfused 24 hours
Method: After embedding cells in collagen and successfully preconditioning endothelialized channels for 72 hours to establish a confluent, aligned endothelium, the effect of different co-culture conditions on the vessel confluence was studied as shown in FIG. 20.
To create a fully functional aligned endothelium along each channel within each compartment, TIME cell suspension in media (10×10^6 cells/ml) was introduced in the channel and underwent flow preconditioning for 3 days. Within the first 36 hours, wall shear stress was maintained at 0.01 dyn/cm^2 and followed with a linear increase of wall shear stress to 0.1 dyn/cm^2 for 1 hour and maintained at this value for the next 36 hours. […] For positive control samples, 20 ng/ml Tumor Necrosis Factor Alpha (TNFα, RnD Systems, MN) was perfused at 0.1 dyn/cm^2 for 24 hours after the preconditioning protocol before transport studies. To provide flow into the microfluidic platform, 0.5″ long 22G stainless steel needles were inserted though PDMS ports and partially into the collagen microchannels. Autoclaved Tygon silicon tubing ( 1/16″ ID, Saint Global, France) was connected to the inlet needle and a bubble trap, which is connected to a syringe pump that controls the flow rate. […]
Therefore, endothelial porosity was determined using fluorescence microscopy images of mKate tagged endothelial cells.

[2] = system: endothelial lumen of C3Asub28/TIME, MDA-MB-231/TIME, THLE-3/TIME microenvironments; assay: Vessel permeability of multi tissue-on-a-chip microenvironments; format: cell-based, human; conditions: TNFα treated TIME monoculture vs TIME monoculture, this study
Method: Transport measurements of varying particle sizes in the multi tissue-on-a-chip microenvironment were conducted for two different scenarios: single microenvironment analysis and microenvironments connected in series to investigate the influence of their interactions and interdependent transport kinetics. When considering only a single microenvironment transport, particles were delivered through the vessel of the microenvironment of interest and transport through the vessel and into the surrounding ECM was measured subsequently and spatially. In these tests, 5 different platform configurations was used: acellular with no cells in the ECM and no cells in the vessel, TIME monoculture consisting only endothelial cells lining the vessel without cells in the ECM, and then vascularized microenvironments denoted as cells in the ECM/cells in the vessel: MDA-MB-231/TIME, C3Asub28/TIME, and THLE-3/TIME microenvironments. […]
Therefore, endothelial porosity was determined using fluorescence microscopy images of mKate tagged endothelial cells. […] The effect of vessel and ECM porosities and particle size on transport were quantified using two methods, permeability coefficient and intensity profiles of the particles in the vessel and ECM. […] Obtained images were exported to Matlab to quantify intensity readings at each time step. For the first method, permeability coefficient was calculated using Equation 8

[3] = system: endothelial lumen of C3Asub28/TIME, MDA-MB-231/TIME, THLE-3/TIME microenvironments; conditions: reported by Zervantonakis et al.; cited from earlier work

In the case of Tumor Necrosis Factor Alpha [TNFα], the “effect on vessel compared to Control −” value [1] is given as “caused vessel permeabilization with significant pore openings”, the “fold change of permeability between Control − and Control +” value [2] is given as 1.59±0.13 and the “fold change of permeability between Control − and Control +” value [3] is given as 1.79±0.27.
